Assay results as given in ChEMBL document CHEMBL1138741, “Virulence regulation and quorum sensing in staphylococcal infections: competitive AgrC antagonists as quorum sensing inhibitors” (J Med Chem, 2004).
Where “and” joins values, the source holds several entries; their conditions need not be identical. Identical values can stand only once. Where a SMILES comes first, the peptide text is derived from it.

What was measured:
[1] = biological target: T1, Receptor-histidine kinase AgrC (Staphylococcus aureus, UniProt O07911); assay: Concentration required to inhibit quorum sensor of Staphylococcus aureus
T1 sequence (O07911 whole entry): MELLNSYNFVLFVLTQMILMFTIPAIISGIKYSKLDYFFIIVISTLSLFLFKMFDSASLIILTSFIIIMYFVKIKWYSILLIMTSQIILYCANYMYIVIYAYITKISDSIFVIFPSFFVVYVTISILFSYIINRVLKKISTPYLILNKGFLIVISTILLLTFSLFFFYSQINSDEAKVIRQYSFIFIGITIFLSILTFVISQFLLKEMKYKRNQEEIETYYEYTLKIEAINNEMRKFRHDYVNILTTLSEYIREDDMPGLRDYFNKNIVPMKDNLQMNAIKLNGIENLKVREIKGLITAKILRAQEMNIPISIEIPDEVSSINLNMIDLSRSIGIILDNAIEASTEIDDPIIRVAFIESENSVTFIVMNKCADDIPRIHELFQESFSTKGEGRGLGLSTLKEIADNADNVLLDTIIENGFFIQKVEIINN

[2] = biological target: T1, Receptor-histidine kinase AgrC; assay: Effective concentration to antagonise accessory gene regulator C1 of Staphylococcus aureus; range = 9-11 uM; type: functional
[3] = biological target: T1, Receptor-histidine kinase AgrC; assay: Effective concentration to antagonise accessory gene regulator C2 of Staphylococcus aureus; type: functional
[4] = biological target: T1, Receptor-histidine kinase AgrC; assay: Concentration required to antagonise accessory gene regulator C4 of Staphylococcus aureus; type: functional
[5] = biological target: T1, Receptor-histidine kinase AgrC; assay: Concentration required to antagonise accessory gene regulator C3 of Staphylococcus aureus; type: functional
[6] = biological target: T1, Receptor-histidine kinase AgrC; assay: Effective concentration to antagonise accessory gene regulator C4 of Staphylococcus aureus; type: functional
[7] = biological target: T1, Receptor-histidine kinase AgrC; assay: Antagonistic concentration for accessory gene regulator C1 of Staphylococcus aureus; type: functional
[8] = biological target: T1, Receptor-histidine kinase AgrC; assay: Concentration required to antagonise accessory gene regulator C2 of Staphylococcus aureus; type: functional
[9] = biological target: T1, Receptor-histidine kinase AgrC; assay: Effective concentration to antagonise accessory gene regulator C3 of Staphylococcus aureus; type: functional

| Compound | IC50 [1] | IC50 [4] | IC50 [5] | IC50 [7] | IC50 [8] | also measured |
| --- | --- | --- | --- | --- | --- | --- |
| CC[C@H](C)[C@@H]1NC(=O)[C@H](Cc2ccccc2)NC(=O)[C@H](C)NC(=O)[C@@H](NC(=O)[C@@H](NC(=O)[C@H](CO)NC(=O)[C@@H](N)Cc2ccc(O)cc2)[C@@H](C)O)CSC(=O)[C@@H](CCSC)NC1=O | 256 nM and 30 nM | – | – | – | – | – |
| CC[C@H](C)[C@@H]1NC(=O)[C@H](Cc2ccccc2)NC(=O)[C@H](CC(=O)O)NC(=O)[C@@H](NC(=O)[C@@H](NC(=O)[C@H](CO)NC(=O)[C@@H](N)Cc2ccc(O)cc2)[C@@H](C)O)CSC(=O)[C@H](CCSC)NC1=O (HELM PEPTIDE1{Y.S.T.C.D.F.I.M}$PEPTIDE1,PEPTIDE1,4:R3-8:R2$$$V2.0) | – | – | – | – | – | EC50 [2]: 11000 nM |
| CC[C@H](C)[C@@H]1NC(=O)[C@H](Cc2ccccc2)NC(=O)[C@H](CC(=O)O)NC(=O)[C@@H](NC(C)=O)CSC(=O)[C@H](CCSC)NC1=O (HELM PEPTIDE1{[ac].C.D.F.I.M}$PEPTIDE1,PEPTIDE1,2:R3-6:R2$$$V2.0) | 8000 nM | – | – | – | – | – |
| CC(C)C[C@@H]1NC(=O)[C@H](CO)NC(=O)[C@H](CO)NC(=O)[C@@H](NC(=O)[C@H](C)NC(=O)[C@H](CC(N)=O)NC(=O)[C@@H](NC(=O)CN)C(C)C)CSC(=O)[C@H](Cc2ccccc2)NC1=O [GVNACSSLF] (HELM PEPTIDE1{G.V.N.A.C.S.S.L.F}$PEPTIDE1,PEPTIDE1,5:R3-9:R2$$$V2.0) | – | 86 nM | 1 nM | – | – | EC50 [3]: 3.6 nM |
| CC[C@H](C)[C@@H]1NC(=O)[C@H](Cc2ccccc2)NC(=O)[C@H](Cc2ccc(O)cc2)NC(=O)[C@@H](NC(=O)[C@@H](NC(=O)[C@H](CO)NC(=O)[C@@H](N)Cc2ccc(O)cc2)[C@@H](C)O)CSC(=O)[C@H](CCSC)NC1=O [YSTCYFIM] (HELM PEPTIDE1{Y.S.T.C.Y.F.I.M}$PEPTIDE1,PEPTIDE1,4:R3-8:R2$$$V2.0) | – | – | 1 nM | 7000 nM | 4 nM | EC50 [6]: 13 nM |
| H-INCDFLL-OH | – | 150 nM | – | 70 nM | 6 nM | EC50 [9]: 26 nM |
